For the test, the system named is SH-SY5Y tauRD-DsRed cells. The test can be described thus: Neurite outgrowth in SH-SY5Y tauRD-DsRed cells (TUBB3 staining). The following applies: 10 μM, pre-treated 8 hours, doxycycline 7 days; untreated = 100%. In kind it is cell-based, human. The method, then:
We used SH-SY5Y human cells expressing a DsRed-tagged proaggregation mutant (ΔK280) of the C-terminal repeat domain of tau (tauRD-Gln^244-Glu^372 of the longest tau^441 isoform). The recombinant tauRD-DsRed construct was under the control of a tetracycline-regulated, hybrid human cytomegalovirus (CMV)/TetO2 promoter that can be induced by adding doxycycline. The cell lines were grown in medium containing blasticidin (5 μg/mL) and hygromycin (100 μg/mL).
SH-SY5Y tauRD-DsRed cells were seeded in 6-well plates (1×10^5/well) in a medium containing all-trans retinoic acid (10 μM, Sigma). After 48 hours of incubation, cells were pre-treated with 10 μM Congo red and 10 μM compound (I) for 8 hours; after which, tauRD-DsRed expression was induced with 1μg/mL doxycycline for 7 days. The cells were then fixed in 4% paraformaldehyde, permeabilized with 0.1% Triton X-100, blocked in 3% BSA, and then stained with the primary antibody anti-TUBB3 (against neuronal Class III β-tubulin) (1:1000; Covance) and with a secondary anti-rabbit Alexa Fluor® 555 antibody (1:500; Molecular Probes). Nuclei were counterstained with 4′,6-diamidino-2-phenylindole (DAPI). The total outgrowth in the untreated, Congo red-treated, and compound (I)-treated cells was assessed using MetaXpress image acquisition and analysis software.

SMILES strings stand for the structures.

As to `Nc1c(/N=N/c2ccc(-c3ccc(/N=N/c4cc(S(=O)(=O)O)c5ccccc5c4N)cc3)cc2)cc(S(=O)(=O)O)c2ccccc12` [Congo red, reference compound], the “neurite growth relative to untreated cells” value came out at 110%.

For the origin of these results see patent publication US20170202792A1, “METHOD FOR TREATING TAU-ASSOCIATED DISEASES” (NATIONAL TAIWAN NORMAL UNIVERSITY, priority 2016, published 2017).
